{"source": "patent US7758903B2", "about": "“Cytokine modulators and related methods of use” (Access Business Group International LLC, priority 2003, dated 2010)", "key": {"[1]": {"tested_on": "IL-1 secretion, THP-1 cells", "test": "LPS-stimulated IL-1 secretion by THP-1 cells, IL-1 ELISA of supernatant", "format": "cell-based, human", "conditions": "IL-1 in supernatant, THP-1 cells pre-treated 4 hours, LPS 100 nanograms/ml 16 hours; for EC50: Homo sapiens, read-out: EC 50 in ug/ml (50% Effective Dose in vitro)", "description": "For this evaluation, white blood cells were dosed with varying concentrations of the ingredients. An inflammatory stimulus, lipopolysaccharide (LPS), was then added to the ingredient-plus-cell culture, as well as untreated control samples of white blood cells. The production of the IL-1 cytokine of both the ingredient-treated cells and the untreated cells was compared to extrapolate the concentration of the ingredient that causes a 50% change in the concentration of IL-1 produced by the cells.\nTo perform the evaluation of inhibiting interleukin synthesis of this example, human white blood cells, specifically THP-1 cells obtained from ATCC of Manassas, Va., were grown under conditions recommended by ATCC in a humidified 37° C. incubator, which was supplied with 5% carbon dioxide. To test the IL-1 inhibitory potential of various compounds, multiple groups of THP-1 cells were plated in 96 well plates. […] With these cell samples plated, they were then dosed.\nIn dosing, each of the ingredients was administered to the plated THP-1 cells in varying doses, specifically, 100 ug/ml, 10 ug/ml, 1 ug/ml and 0 ug/ml. […] The THP-1 cells, now dosed with the desired ingredients, were returned to the incubator and incubated for 4 hours under the same conditions.\nThereafter, a known inflammatory stimulator, lipopolysaccharide (LPS) was added to each well plate to a final concentration of 100 nanograms/ml. The LPS treated cultures were returned to the incubator for an additional 16 hours. […]\nThereafter, the liquids from each of the wells were removed and the coated plate was washed 3 times in a wash buffer. […] The reaction of the substrate solution (TMB) and the horseradish peroxidase conjugated to the anti-IL-1 antibody produces a colored product with specific spectral absorbance at wavelength of 450 nm.\nThe calibration standard samples were subjected to the same protocol as the supernatant samples to determine the IL-1 present in those calibration samples. […] The optical density of the standard calibration samples were then plotted to determine a standardized IL-1 absorbance calibration curve."}, "[2]": {"tested_on": "IL-1/IL-6 Stimulated CRP Secretion, hepatocytes", "test": "IL-1/IL-6 stimulated CRP secretion by primary hepatocytes, CRP ELISA of supernatant", "format": "cell-based", "conditions": "Homo sapiens, Hepatocyte", "description": "Hepatocytes' response to IL-1 expression levels was evaluated by measuring CRP in the culture supernatant after exposure of the hepatocytes to IL-1 and IL-6 with or without pre-treatment with varying doses of the other ingredients.\nThe IL-1 response effects were evaluated in hepatocytes by measuring the secretion of CRP when the hepatocytes were exposed to IL-1α and IL-6 with or without pre-treatment with varying doses of the other ingredients. […] Thus, by measuring CRP secreted by the hepatocytes, the degree of cells' response to IL-1 and/or IL-6 is able to be determined.\nTo perform the evaluation of this example, human primarily isolated hepatocyte cells, obtained from In vitro Technology of Baltimore, Md., were restored under the conditions recommended by In vitro Technology in a humidified 37° C. incubator, which was supplied with 5% carbon dioxide. To test the CRP response potential of various compounds, multiple groups of hepatocytes were plated in 96 well plates. Specifically, 1×10^4 cells were plated in hepatocyte media supplement with 10% fetal bovine serum which were then exposed with varying doses, specifically, 100 ug/ml, 10 ug/ml, 1 ug/ml and 0 ug/ml of test ingredients. […]"}, "[3]": {"tested_on": "IL-1 secretion, THP-1 cells", "test": "Synergy or interference of other ingredients with optional primary ingredients in inhibiting LPS-stimulated IL-1 secretion", "format": "cell-based, human", "parameters": "key: a “+” indicates interference or synergy, respectively as shown; a “−” indicates no interference or no synergy", "description": "Specifically, the release of IL-1 from the THP-1 cells after exposure to lipopolysaccharide (LPS) with or without pre-treatment in varying doses of the other ingredients, or a combination of those other ingredients with optional primary ingredients, was measured to evaluate the effects of the other ingredients on monocyte IL-1α secretion.\nThe other ingredients tested were: blackberry extract, blueberry extract, cranberry extract, rosemary extract, clove extract and resveratrol.\nIn Table IV, a “−” indicates no interference or no synergy, and a “+” indicates interference or synergy, respectively as shown."}}, "note": "Read-outs that look alike come from different tables or passages of the source."}
{"smiles": "COc1cc(/C=C/C(=O)O)ccc1O", "note": "[Ferulic acid]", "values": [{"measurement": "EC50", "setting": "[1]", "value": 10, "unit": "µg/mL"}]}
{"smiles": "Oc1ccc(C=Cc2cc(O)cc(O)c2)cc1", "note": "[Resveratrol]", "values": [{"measurement": "EC50", "setting": "[2]; IL-1/IL-6 stimulated CRP secretion, hepatocytes, Example 2, read-out: CRP EC 50 in ug/ml (50% Effective Dose in vitro)", "value": "1 to 10", "unit": "µg/mL"}, {"measurement": "EC50", "setting": "[2]; hepatocytes activated via IL-1 and IL-6 (1 ng/ml each), read-out: EC50 of CRP secretion inhibition", "value": "1 to 10", "unit": "µg/mL"}, {"measurement": "Interference +/−", "setting": "[3]; with Artichoke", "value": "−"}, {"measurement": "Synergy +/−", "setting": "[3]; with Artichoke", "value": "−"}, {"measurement": "Interference +/−", "setting": "[3]; with Nettle Root", "value": "−"}, {"measurement": "Synergy +/−", "setting": "[3]; with Nettle Root", "value": "−"}, {"measurement": "Interference +/−", "setting": "[3]; with Olive Extract", "value": "−"}, {"measurement": "Synergy +/−", "setting": "[3]; with Olive Extract", "value": "−"}, {"measurement": "Interference +/−", "setting": "[3]; with Rosehips", "value": "−"}, {"measurement": "Synergy +/−", "setting": "[3]; with Rosehips", "value": "−"}]}
{"smiles": "O=C(O[C@@H]1Cc2c(O)cc(O)cc2O[C@@H]1c1cc(O)c(O)c(O)c1)c1cc(O)c(O)c(O)c1", "note": "[Epigallocatechin gallate]", "values": [{"measurement": "EC 50 in ug/ml (50% Effective Dose in vitro)", "setting": "[1]", "value": "<1", "unit": "µg/mL"}]}
{"smiles": "CC(C)Oc1ccc2c(=O)c(-c3ccccc3)coc2c1", "note": "[Ipriflavone, reference compound]", "values": [{"measurement": "EC50", "setting": "[1]", "value": "< 1", "unit": "µg/mL"}]}
